Experimental data published in patent EP0946545B1, “NOVEL CARBOXY SUBSTITUTED CYCLIC CARBOXAMIDE DERIVATIVES” (Aventis Pharmaceuticals Inc., priority 1996, dated 1998).
Where a name gives a salt, the structure may show the parent alone. Read-outs that look alike come from different tables or passages of the source.

Tests used:
[1] = molecular target: T1, human jejunal NK2 receptor (Homo sapiens, UniProt P21452); test: Antagonism of iodinated tachykinin binding to NK2 receptors (Example A)
T1 construct: expressed in transfected cells; host or cells: HSKR-1 cells (mouse 3T3 fibroblasts)
T1 sequence (P21452 1-398): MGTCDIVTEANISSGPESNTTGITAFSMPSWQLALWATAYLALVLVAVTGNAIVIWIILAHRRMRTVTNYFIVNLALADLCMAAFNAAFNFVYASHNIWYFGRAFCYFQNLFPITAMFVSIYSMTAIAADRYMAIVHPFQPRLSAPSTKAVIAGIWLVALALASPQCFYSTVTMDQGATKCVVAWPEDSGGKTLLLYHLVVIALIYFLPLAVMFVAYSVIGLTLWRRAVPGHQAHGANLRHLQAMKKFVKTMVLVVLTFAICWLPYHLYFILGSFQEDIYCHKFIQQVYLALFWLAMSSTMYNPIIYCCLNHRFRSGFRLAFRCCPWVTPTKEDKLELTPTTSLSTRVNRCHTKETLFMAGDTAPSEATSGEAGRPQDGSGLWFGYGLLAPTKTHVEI
Protocol: (§1) One skilled in the art can determine the NK1 receptor and NK2 receptor affinity in vitro as follows. The NK1 receptor affinity of tachykinin antagonists is evaluated in guinea pig lungs (Keystone Biologicals, Cleveland, OH) and affinity for the NK2 receptor is evaluated in HSKR-1 cells (which are mouse 3T3 fibroblasts expressing the human jejunal NK2 receptor). Tissues or cells are homogenized with a Polytron in 15 volumes of 50 mM Tris-HC1 buffer (pH 7.4, 4°C) and centrifuged. The pellet is resuspended in Tris-HCl buffer and is centrifuged; the pellet is washed twice by resuspension. The final pellet is resuspended at a concentration of 40 mg/ml for tissues and 20 mg/ml for cells in incubation buffer and remains at room temperature for at least 15 min prior to use. Receptor binding is initiated by addition of 250 ul membrane preparation in duplicate to 0.1 nM of the following radioligands: ^125I-Bolton Hunter Lys-3 labeled substance P and ^125iodohistidyl-1-neurokinin A; in a final volume of 500 ul of buffer containing 50 mM Tris-HCl (pH 7.4 at room temperature), 0.1% bovine serum albumin, 2 mM mangenese chloride, 40 ug/ml bacitracin, 4 µg/ml leupeptin and chymostatin, 10 µM thiorphan and various doses of the putative tachykinin antagonists. Incubations are performed at room temperature for 90 min (NK1 receptor assays) or 2 hr (NK2 receptor assay); binding is terminated by addition of 50 mM Tris-HCl buffer (pH 7.4, 4°C) and filtration under vacuum through GF/B filters presoaked with 0.1% polyethyleneimine (NK1 receptor assays) or 0.5% bovine serum albumin (NK2 receptor assay). Filter bound radioactivity is quantitated in a gamma counter. Nonspecific binding is defined as binding in the presence of 1 µM substance P or neurokinin A. Specific binding is calculated by subtracting nonspecific binding from total binding. Competition of iodinated SP or NKA binding by test compounds or standards is expressed as a percentage of this maximum binding. IC50 values (concentration required to inhibit 50% of receptor binding) are generated for each of the test compounds by nonlinear regression using an iterative curve fitting program (GraphPAD Inplot, San Diego, CA).
(§2) Tackykinin receptor binding (IC50 values) for representative compounds of the present invention is found in Table 1. The values in Table 1 were determined by the method of present Example A and represent the mean of several experiments, except where noted. […]

[2] = molecular target: T2, NK1 receptor (Cavia porcellus, UniProt P30547); test: Antagonism of iodinated tachykinin binding to NK1 receptors (Example A); set-up: species or system guinea pig
T2 construct: evaluated in guinea pig lungs (Keystone Biologicals, Cleveland, OH); tissue Keystone Biologicals, Cleveland, OH; host or cells: guinea pig lung membranes
T2 sequence (P30547 whole entry): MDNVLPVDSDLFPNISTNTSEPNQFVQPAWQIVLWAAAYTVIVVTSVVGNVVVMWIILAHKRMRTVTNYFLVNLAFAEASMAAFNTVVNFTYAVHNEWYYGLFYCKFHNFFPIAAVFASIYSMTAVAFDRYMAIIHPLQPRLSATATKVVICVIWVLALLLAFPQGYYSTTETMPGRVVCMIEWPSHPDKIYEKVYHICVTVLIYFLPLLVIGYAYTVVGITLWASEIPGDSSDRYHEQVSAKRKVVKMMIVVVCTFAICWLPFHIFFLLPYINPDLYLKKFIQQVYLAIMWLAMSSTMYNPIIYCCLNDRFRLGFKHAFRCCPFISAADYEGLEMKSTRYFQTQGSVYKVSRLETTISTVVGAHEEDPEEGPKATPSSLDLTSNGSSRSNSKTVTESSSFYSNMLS
Protocol: as §1, §2

[3] = read-out: Tachykinin Receptor Binding NK2 IC50, HSKR-1 cells (mouse 3T3 fibroblasts expressing the human jejunal NK2 receptor), 0.1 nM 125iodohistidyl-1-neurokinin A, 2 hr room temperature, mean of several experiments
[4] = read-out: Tachykinin Receptor Binding NK1 IC50, guinea pig lungs membranes, 0.1 nM 125I-Bolton Hunter Lys-3 labeled substance P, 90 min room temperature, mean of several experiments

| Compound | IC50 [1] | IC50 [2] | IC50 [1, 3] | IC50 [2, 4] |
| --- | --- | --- | --- | --- |
| CCOC(=O)CCCN1CCN(C(=O)C2(c3ccccc3)CCN(CC[C@]3(c4ccc(Cl)c(Cl)c4)CCN(C(=O)c4cc(OC)c(OC)c(OC)c4)C3)CC2)CC1 [Example 29.2, (R)-1-(3,4,5-trimethoxybenzoyl)-3-(2-(4-phenyl-4-((4-carboethoxypropylpiperazin-1-yl)carboxamido)piperidine)ethyl)-3-(3,4-dichlorophenyl)pyrrolidine fumaric acid salt] | 3.21 nM | 11.9 nM |  |  |
| COc1cc(C(=O)N2CC[C@](CCN3CCC(C(=O)N4CCN(CCCC(=O)O)CC4)(c4ccccc4)CC3)(c3ccc(Cl)c(Cl)c3)C2)cc(OC)c1OC [Example 30.2, (R)-1-(3,4,5-trimethoxybenzoyl)-3-(2-(4-phenyl-4-((4-carboxypropylpiperazin-1-yl)carboxamido)piperidine)ethyl)-3-(3,4-dichlorophenyl)pyrrolidine hydrochloric acid salt] | 3.6 nM | 3.4 nM |  |  |
| CCOC(=O)OCOC(=O)CN1CCN(C(=O)C2(c3ccccc3)CCN(CC[C@]3(c4ccc(Cl)c(Cl)c4)CCN(C(=O)c4cc(OC)c(OC)c(OC)c4)C3)CC2)CC1 [Example 31.2, (R)-1-(3,4,5-trimethoxybenzoyl)-3-(2-(4-phenyl-4-((4-carbo(ethoxycarbonyloxymethoxy)methylpiperazin-1-yl)carboxamido)piperidine)ethyl)-3-(3,4-dichlorophenyl)pyrrolidine fumaric acid salt] |  |  | 9.1 nM | 11.7 nM |
| COc1cc(C(=O)N2CC[C@](CCN3CCC(C(=O)N4CCN(CC(=O)OCOC(=O)C(C)(C)C)CC4)(c4ccccc4)CC3)(c3ccc(Cl)c(Cl)c3)C2)cc(OC)c1OC [Example 32.2, (R)-1-(3,4,5-trimethoxybenzoyl)-3-(2-(4-phenyl-4-((4-carbo(t-butylcarbonyloxymethoxy)methylpiperazin-1-yl)carboxamido)piperidine)ethyl)-3-(3,4-dichlorophenyl)pyrrolidine fumaric acid salt] |  |  | 13.9 nM | 21.2 nM |
| CCN(CC)C(=O)COC(=O)CN1CCN(C(=O)C2(c3ccccc3)CCN(CC[C@]3(c4ccc(Cl)c(Cl)c4)CCN(C(=O)c4cc(OC)c(OC)c(OC)c4)C3)CC2)CC1 [Example 33.2, (R)-1-(3,4,5-trimethoxybenzoyl)-3-(2-(4-phenyl-4-((4-carbo(N,N-diethylcarboxamidomethoxy)methylpiperazin-1-yl)carboxamido)piperidine)ethyl)-3-(3,4-dichlorophenyl)pyrrolidine fumaric acid salt] |  |  | 2.43 nM | 3.95 nM |
| CCCC(=O)OCOC(=O)CN1CCN(C(=O)C2(c3ccccc3)CCN(CC[C@]3(c4ccc(Cl)c(Cl)c4)CCN(C(=O)c4cc(OC)c(OC)c(OC)c4)C3)CC2)CC1 [Example 35.2, (R)-1-(3,4,5-trimethoxybenzoyl)-3-(2-(4-phenyl-4-((4-carbo(propylcarbonyloxymethoxy)methylpiperazin-1 yl)carboxamido)piperidine)ethyl)-3-(3,4-dichlorophenyl)pyrrolidine fumaric acid salt] |  |  | 11.7 nM | 14.7 nM |
| COc1cc(C(=O)N2CC[C@](CCN3CCC(C(=O)N4CCN(CC(=O)OCC(=O)N(CCO)CCO)CC4)(c4ccccc4)CC3)(c3ccc(Cl)c(Cl)c3)C2)cc(OC)c1OC [Example 36.1, (R)-1-(3,4,5-Trimethoxybenzoyl)-3-(2-(4-phenyl-4-((4-carbo(N,N-di-(2-hydroxyethyl)carboxamidomethoxy)methylpiperazin-1-yl)carboxamido)piperidin-1-yl)ethyl)-3-(3,4-dichlorophenyl)pyrrolidine] |  |  | 2.32 nM | 2.68 nM |
| COc1cc(C(=O)N2CC[C@](CCN3CCC(C(=O)N4CCN(CC(=O)OCC(=O)N(C)CCN(C)C)CC4)(c4ccccc4)CC3)(c3ccc(Cl)c(Cl)c3)C2)cc(OC)c1OC [Example 37.2, (R)-1-(3,4,5-Trimethoxybenzoyl)-3-(2-(4-phenyl-4-((4-carbo(N-methyl-N-(2-dimethylaminoethyl))carboxamidomethoxy)methylpiperazin-1-yl)carboxamido)piperidin-1-yl)ethyl)-3-(3,4-dichlorophenyl)pyrrolidine fumaric acid salt] |  |  | 0.9 nM | 2.09 nM |
| COc1cc(C(=O)N2CC[C@](CCN3CCC(C(=O)N4CCN(CC(=O)OCc5oc(=O)oc5C)CC4)(c4ccccc4)CC3)(c3ccc(Cl)c(Cl)c3)C2)cc(OC)c1OC [Example 38.2, (R)-1-(3,4,5-Trimethoxybenzoyl)-3-(2-(4-phenyl-4-((4-carbo(5-methyl-2-oxo-1,3-dioxol-4-yimethoxy)methylpiperazin-1-yl)carboxamido)piperidin-1-yl)ethyl)-3-(3,4-dichlorophenyl)pyrrolidine fumaric acid salt] |  |  | 4.3 nM | 7.82 nM |
